Reference: patent US4100276A, “Fusidic acid derivatives” (priority 1975, dated 1978)
Converted amounts (≈) assume the structure as drawn. Structures can show the parent of a compound that is named as a salt. Where two headings read alike, the source gives them in different places.

Key:
[1] = test system: Streptococcus pyogenes Leo EC; assay: In vitro activity, concentration required for 50% inhibition (Table A); assay type: cell-based
[2] = test system: Streptococcus sp. Leo EG2; assay: as above; assay type: cell-based
[3] = test system: Staphylococcus aureus Leo CC178B; assay: as above; assay type: cell-based; settings: for IC50: LEOCC178B, read-out: Concentration required for 50% inhibition (IC50)
[4] = test system: Staph. aureus, Leo CC178H2 (fusidic acid resistant strain); assay: as above; assay type: cell-based; settings: Staphylococcus aureus, read-out: Concentration required for 50% inhibition (IC50)
[5] = test system: Staph. aureus Leo CJ145; assay: as above; assay type: cell-based; settings: for IC50: Staphylococcus aureus
[6] = test system: Bacteroides fragilis, Leo JA2; assay: as above; assay type: cell-based
[7] = test system: Corynebact. acnes Leo FN; assay: as above; assay type: cell-based, Corynebacterium acnes; settings: for IC50: Cutibacterium acnes
[8] = test system: fusidic acid resistant variant of Staph. aureus (Leo CC 178A); assay: In vitro activity before and after a number of transfers (Example 48, Table C); assay type: cell-based; settings: for IC50: Staphylococcus aureus
Experimental: (§1) In vitro activity of 3α,11α-dihydroxy-16β-ethylthiofusida-13(17),24-dien-21-oic acid against Staph. aureus before and after a number of transfers.
(§2) Serial dilutions of the compound above were made in liquid NIH-medium and then heavily inoculated with either a fusidic acid sensitive strain of Staph. aureus (Leo CC 178B) or with a fusidic acid resistant variant of the same strain (Leo CC 178A).
(§3) After every 72 to 96 hours transfers were made from the tubes containing the largest amount of the test compound showing full growth.

[9] = test system: fusidic acid sensitive strain of Staph. aureus (Leo CC 178B); assay: as above; assay type: cell-based; settings: for IC50: Staphylococcus aureus, Leo CC 178B (fusidic acid sensitive), overnight incubation
Experimental: as §1, §2, §3

[10] = test system: Staphylococcus aureus; assay: In vitro effect of combination with dihydro-fusidic acid, viable counts (Example 46); assay type: cell-based; settings: tubes a, b 10 μg/ml, tube c 5 + 5 μg/ml
Experimental: In vitro-effect of the combination of dihydro-fusidic acid and 3α,11α-dihydroxy-16β-phenylthio-fusida-13(17),24-dien-21- oic acid
To three tubes containing NIH broth was added:
a. The sodium salt of dihydro-fusidic acid (10 μg/ml).
b. The sodium salt of 3α,11α-dihydroxy-16-phenylthiofusida-13(17),24-dien-21-oic acid (10 μg/ml).
c. A mixture of the sodium salts of dihydro-fusidic acid (5 μg/ml) and 3α,11α-dihydroxy-16-phenylthiofusida-13(17),24-dien-21-oic acid (5 μg/ml).
The tubes were inoculated with Staphylococcus aureus to give 5.2 × 10^5 organisms per ml, incubated at 37° C for 96 hours, and the viable counts were determined.
A fourth tube was treated similarly without addition of any of the antibiotics and used as a control: […]

[11] = Streptococcus pyogenes Leo EC, read-out: Concentration required for 50% inhibition (IC50)
[12] = Streptococcus sp. Leo EG2, read-out: Concentration required for 50% inhibition (IC50)
[13] = Staphylococcus aureus Leo CC178B
[14] = LEOCJ145, Staph. aureus Leo CJ145, read-out: Concentration required for 50% inhibition (IC50)
[15] = LEOJA2, Bacteroides fragilis Leo JA2, read-out: Concentration required for 50% inhibition (IC50)
[16] = Corynebact. acnes Leo FN, read-out: Concentration required for 50% inhibition (IC50)
[17] = read-out: IC50 after 1st transfer
[18] = read-out: IC50 after 2nd transfer
[19] = read-out: IC50 after 3rd transfer
[20] = read-out: IC50 after 4th transfer
[21] = read-out: IC50 after 5th transfer
[22] = read-out: IC50 after 6th transfer
[23] = Streptococcus pyogenes, read-out: Concentration required for 50% inhibition (IC50), Streptococcus pyogenes Leo EC
[24] = Streptococcus, read-out: Concentration required for 50% inhibition (IC50), Streptococcus sp. Leo EG2
[25] = Bacteroides fragilis, LEOJA2, read-out: Concentration required for 50% inhibition (IC50), Bacteroides fragilis Leo JA2

CC(C)=CCCC(C(=O)O)C1=C2C[C@@H](O)[C@H]3[C@@]4(C)CC[C@@H](O)[C@@H](C)[C@@H]4CC[C@]3(C)[C@@]2(C)C[C@@H]1Sc1ccc(Br)cc1 (stereo partly drawn) [Example 2, 3α,11α-dihydroxy-16β--(4'-bromophenylthio)fusida-13(17),24-dien-21-oic acid sodium salt]
IC50 [1, 11]: 0.2 µg/mL
IC50 [2, 12]: 0.5 µg/mL
IC50 [3, 13]: 6.3 µg/mL
IC50 [4]: 10 µg/mL
IC50 [5, 14]: 100 µg/mL
IC50 [6, 15]: 13 µg/mL
IC50 [7, 16]: 0.63 µg/mL

CC(C)CCCC(C(=O)O)C1=C2C[C@@H](O)[C@H]3[C@@]4(C)CC[C@@H](O)[C@@H](C)[C@@H]4CC[C@]3(C)[C@@]2(C)C[C@@H]1Sc1ccccc1 (stereo partly drawn) [Example 8, 3α,11α-Dihydroxy-16β-phenylthiofusida-13(17)-en-21-oic acid, sodium salt]
IC50 [1, 11]: 0.5 µg/mL
IC50 [2, 12]: 0.5 µg/mL
IC50 [3, 13]: 2 µg/mL
IC50 [4]: 2.5 µg/mL
IC50 [6, 15]: > 100 µg/mL
IC50 [7, 16]: 1.6 µg/mL

CCS[C@H]1C[C@@]2(C)C(=C1C(CCC=C(C)C)C(=O)O)C[C@@H](O)[C@H]1[C@@]3(C)CC[C@@H](O)[C@@H](C)[C@@H]3CC[C@@]12C (stereo partly drawn) [Example 11, 3α,11α-dihydroxy-16β-ethylthiofusida-13(17),24-dien-21-oic acid sodium salt]
IC50 ([1]; Streptococcus pyogenes, read-out: Concentration required for 50% inhibition (IC50)): 1.6 µg/mL
IC50 ([2]; Streptococcus, read-out: Concentration required for 50% inhibition (IC50)): 1.6 µg/mL
IC50 ([3]; Staphylococcus aureus): 2.7 µg/mL
IC50 [4]: 3.2 µg/mL
IC50 ([5]; LEOCJ145, read-out: Concentration required for 50% inhibition (IC50)): 3.2 µg/mL
IC50 ([6]; Bacteroides fragilis, LEOJA2, read-out: Concentration required for 50% inhibition (IC50)): 2 µg/mL
IC50 ([7]; read-out: Concentration required for 50% inhibition (IC50)): 2 µg/mL
IC50 [8, 17]: 2.3 µg/mL
IC50 [8, 18]: 3.8 µg/mL
IC50 [8, 19]: 4.3 µg/mL
IC50 [8, 20]: 4.2 µg/mL
IC50 [8, 21]: 4 µg/mL
IC50 [8, 22]: 4 µg/mL
IC50 ([8]; read-out: IC50 before transfer): 2.7 µg/mL
Change in sensitivity after transfers ([8]; fusidic acid resistant strain): hardly shows any change in sensitivity
IC50 [9, 17]: 2 µg/mL
IC50 [9, 18]: 7.4 µg/mL
IC50 [9, 19]: 7.4 µg/mL
IC50 [9, 20]: 13.5 µg/mL
IC50 [9, 21]: 10 µg/mL
IC50 [9, 22]: 32 µg/mL
IC50 ([9]; read-out: IC50 before transfer): 2.7 µg/mL
Decrease of sensitivity after the 6th transfer ([9]; fusidic acid sensitive strain): 12 fold

CC(C)=CCCC(C(=O)O)C1=C2C[C@@H](O)[C@H]3[C@@]4(C)CC[C@@H](O)[C@@H](C)[C@@H]4CC[C@]3(C)[C@@]2(C)C[C@@H]1SC(C)(C)C (stereo partly shown) [Example 13]
IC50 [1, 11]: 0.63 µg/mL (≈ 1.15 µM)
IC50 [2, 12]: 1.6 µg/mL (≈ 2.93 µM)
IC50 [3, 13]: 1.6 µg/mL (≈ 2.93 µM)
IC50 [4]: 1.6 µg/mL (≈ 2.93 µM)
IC50 [5, 14]: 7.9 µg/mL (≈ 14.4 µM)
IC50 [6, 15]: 2 µg/mL (≈ 3.66 µM)
IC50 [7, 16]: 0.5 µg/mL (≈ 0.914 µM)

C=CCS[C@H]1C[C@@]2(C)C(=C1C(CCC=C(C)C)C(=O)O)C[C@@H](O)[C@H]1[C@@]3(C)CC[C@@H](O)[C@@H](C)[C@@H]3CC[C@@]12C (stereo partly shown) [Example 14]
IC50 [1, 11]: 0.32 µg/mL (≈ 0.603 µM)
IC50 [2, 12]: 1.6 µg/mL (≈ 3.01 µM)
IC50 [3, 13]: 1.6 µg/mL (≈ 3.01 µM)
IC50 [4]: 1.6 µg/mL (≈ 3.01 µM)
IC50 [5, 14]: 5 µg/mL (≈ 9.42 µM)
IC50 [6, 15]: 4 µg/mL (≈ 7.54 µM)
IC50 [7, 16]: 1.6 µg/mL (≈ 3.01 µM)

CC(C)=CCCC(C(=O)O)C1=C2C[C@@H](O)[C@H]3[C@@]4(C)CC[C@@H](O)[C@@H](C)[C@@H]4CC[C@]3(C)[C@@]2(C)C[C@@H]1SCc1ccco1 (stereo partly shown) [Example 23]
IC50 [1, 11]: 0.63 µg/mL (≈ 1.1 µM)
IC50 [2, 12]: 1.6 µg/mL (≈ 2.8 µM)
IC50 [3, 13]: 1.6 µg/mL (≈ 2.8 µM)
IC50 [4]: 1.6 µg/mL (≈ 2.8 µM)
IC50 [5, 14]: 7.9 µg/mL (≈ 13.8 µM)
IC50 [6, 15]: 16 µg/mL (≈ 28 µM)
IC50 [7, 16]: 0.79 µg/mL (≈ 1.38 µM)

CC(C)CCCC(C(=O)O)C1=C2C[C@@H](O)[C@H]3[C@@]4(C)CC[C@@H](O)[C@@H](C)[C@@H]4CC[C@]3(C)[C@@]2(C)C[C@@H]1SC(C)C (stereo partly drawn) [Example 26, 3α,11α-Dihydroxy-16β-isopropylthiofusida-13(17)-en-21-oic acid sodium salt]
IC50 [1, 23]: 0.5 µg/mL
IC50 [2, 24]: 0.5 µg/mL
IC50 ([3]; Staphylococcus aureus): 1.6 µg/mL
IC50 [4]: 1.6 µg/mL
IC50 [6, 25]: 20 µg/mL
IC50 ([7]; read-out: Concentration required for 50% inhibition (IC50), Corynebact. acnes Leo FN): 0.5 µg/mL

CC(C)=CCCC(C(=O)O)C1=C2C[C@@H](O)[C@H]3[C@@]4(C)CC[C@@H](O)[C@@H](C)[C@@H]4CC[C@]3(C)[C@@]2(C)C[C@@H]1SC(C)C (stereo partly drawn) [Example 27, 3α,11α-Dihydroxy-16β-isopropylthiofusida-13(17), 24-dien-21-oic acid]
IC50 [1, 23]: 0.63 µg/mL (≈ 1.18 µM)
IC50 [2, 24]: 1 µg/mL (≈ 1.88 µM)
IC50 ([3]; Staphylococcus aureus): 1.6 µg/mL (≈ 3 µM)
IC50 [4]: 1.6 µg/mL (≈ 3 µM)
IC50 ([5]; LEOCJ145, read-out: Concentration required for 50% inhibition (IC50), Staph. aureus Leo CJ145): 4 µg/mL (≈ 7.51 µM)
IC50 [6, 25]: 10 µg/mL (≈ 18.8 µM)
Concentration required for 50% inhibition (IC50) ([7]; Corynebact. acnes Leo FN): 0.63 µg/mL

CC(C)=CCCC(C(=O)O)C1=C2C[C@@H](O)[C@H]3[C@@]4(C)CC[C@@H](O)[C@@H](C)[C@@H]4CC[C@]3(C)[C@@]2(C)C[C@@H]1SC(C)C (stereo partly drawn) [Example 31C, 3α,11α-dihydroxy-16β-isopropylthiofusida-13(17),24-dien-21-oic acid]
Concentration required for 50% inhibition (IC50) ([1]; Streptococcus pyogenes Leo EC): 0.5 µg/mL
Concentration required for 50% inhibition (IC50) ([2]; Streptococcus sp. Leo EG2): 0.63 µg/mL
Concentration required for 50% inhibition (IC50) [3, 13]: 1.6 µg/mL
Concentration required for 50% inhibition (IC50) ([5]; Staph. aureus Leo CJ145): 4.0 µg/mL
Concentration required for 50% inhibition (IC50) ([6]; Bacteroides fragilis Leo JA2): 6.3 µg/mL
Concentration required for 50% inhibition (IC50) ([7]; Corynebact. acnes Leo FN): 0.63 µg/mL

CC(C)=CCCC(C(=O)O)C1=C2C[C@@H](O)[C@H]3[C@@]4(C)CC[C@@H](O)[C@@H](C)[C@@H]4CC[C@]3(C)[C@@]2(C)C[C@@H]1SC(C)C (stereo partly drawn) [Example 31D, 3α,11α-dihydroxy-16β-isopropylthiofusida-13(17),24-dien-21-oic acid]
Concentration required for 50% inhibition (IC50) ([1]; Streptococcus pyogenes Leo EC): 0.63 µg/mL
Concentration required for 50% inhibition (IC50) ([2]; Streptococcus sp. Leo EG2): 0.79 µg/mL
Concentration required for 50% inhibition (IC50) [3, 13]: 1.6 µg/mL
Concentration required for 50% inhibition (IC50) ([5]; Staph. aureus Leo CJ145): 5.0 µg/mL
Concentration required for 50% inhibition (IC50) ([7]; Corynebact. acnes Leo FN): 1.6 µg/mL

CC(=O)O[C@H]1C[C@@]2(C)[C@@H](C[C@@H](O)[C@H]3[C@@]4(C)CC[C@@H](O)[C@@H](C)[C@@H]4CC[C@@]32C)/C1=C(\CCCC(C)C)C(=O)O [sodium salt of dihydro-fusidic acid, reference compound]
Viable counts after 6 1/2 hours ([10]; 37° C, inoculum 5.2 × 10^5): 3.1 × 10^5 organisms per ml
Viable counts after 2 hours ([10]; 37° C, inoculum 5.2 × 10^5): 4.1 × 10^5 organisms per ml
Viable counts after 24 hours ([10]; 37° C, inoculum 5.2 × 10^5): 6.3 × 10^6 organisms per ml
Resistance of surviving organisms to the compound / development of resistance ([10]; 96 hours): resistant to dihydro-fusidic acid
